The results in this text go back to ChEMBL document CHEMBL1201862, “PubChem BioAssay data set” (2004).

Common to all, as to assay: growth of human tumour cells (NCI), 48 h
Assay [1] deals with A549.
The test system of assay [2] is ACHN.
Assay [3] deals with BT-549.
In assay [4] the test system is EKVX.
Assay [5] concerns HOP-62.
Assay [6] concerns HOP-92.
Assay [7] relates to Hs-578T.
In assay [8] the test system is MDA-MB-435.
Assay [9] deals with OVCAR-8.
The subject of assay [10] is PC-3.
Assay [11] concerns RXF 393.
Assay [12] concerns SF-268.
For assay [13], the system named is SK-MEL-5.
Assay [14] has as its system SN12C.
The subject of assay [15] is SNB-19.
Assay [16] deals with SR.
Assay [17] relates to T47D.
Assay [18] deals with TK-10.
Assay [19] relates to UACC-62.
In assay [20] the test system is SK-MEL-2.

Structures are written as SMILES.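 A five-concentration, 48-hour dose response in 96-well plates underlies each endpoint, interpolated linearly between surrounding concentrations. GI50 = concentration required for 50% inhibition of growth.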 Calls of active or inactive are those of the source. Cut-off read from the data, not from the text of the source: active = GI50 up to about 1.1 µM and inactive = higher. Bounds are passed on as bounds.

Turning to `CC1=C2c3ccccc3N(S(=O)(=O)c3ccccc3)[C@H]2[C@H](C(=O)N2C3CC4CC[C@@]3(CS2(=O)=O)C4(C)C)CC1` (stereo partly drawn), the GI50 in assay [1] is 35.3 µM (inactive); in assay [2], 34.3 µM (inactive); in assay [3] it was 8.28 µM (inactive); in assay [4] it was 56.6 µM (inactive); in [5], 16.4 µM (inactive); in [6] it was 22.5 µM (inactive). Besides, the GI50 in assay [7] is 0.627 µM (active); in [8], 56.5 µM (inactive); in [9], 21.6 µM (inactive); in assay [10], 8.67 µM (inactive); in assay [11], 0.222 µM (active); in assay [12], 17.9 µM (inactive). Besides, the GI50 in assay [13] was 22.8 µM (inactive); in assay [14], 39.1 µM (inactive); in [15], 24.9 µM (inactive); in [16] it was 12.5 µM (inactive); in assay [17], 10.6 µM (inactive); in [18], 43.9 µM (inactive). Further, the GI50 in [19] was 9.55 µM (inactive).
For the compound `CC(=O)O[C@H]1C(=O)[C@@]2(C)[C@H]([C@H](OC(=O)c3ccccc3)[C@]3(O)C[C@H](OC(=O)[C@H](O)[C@@H](NC(=O)c4ccccc4)C4CCCCC4)C(C)=C1C3(C)C)[C@]1(OC(C)=O)CO[C@@H]1C[C@@H]2O`, the GI50 was < 0.0173 µM (active) in assay [1]; 0.288 µM (active) in assay [2]; 0.0143 µM (active) in assay [3]; 3 µM (inactive) in [4]; < 0.01 µM (active) in assay [5]; < 0.0174 µM (active) in [6]. Besides, the GI50 was < 0.01 µM (active) in assay [7]; < 0.01 µM (active) in [8]; < 0.01 µM (active) in assay [9]; 0.0468 µM (active) in [10]; < 0.01 µM (active) in [11]; < 0.01 µM (active) in assay [12]. The GI50 in assay [20] is 17.3 µM (inactive); in assay [13], < 0.01 µM (active); in assay [15], 0.013 µM (active); in [16] it was < 0.01 µM (active); in [17] it was < 0.01 µM (active); in assay [18], 0.0352 µM (active). The GI50 in [19] is < 0.01 µM (active).
On to `O=C(Cc1ccccc1)NCCCN(CCCCN(CCCNC(=O)Cc1ccccc1)C(=O)OCc1ccccc1)C(=O)OCc1ccccc1`, for which the GI50 in assay [1] is > 43 µM (inactive); in assay [2], > 21.6 µM (inactive); in [3], > 100 µM (inactive); in [4], > 49.8 µM (inactive); in [5], > 100 µM (inactive); in assay [6], > 25.2 µM (inactive). Also, the GI50 in assay [7] was > 100 µM (inactive); in [8] it was > 100 µM (inactive); in [9] it was > 100 µM (inactive); in assay [10], 7.45 µM (inactive); in assay [11], > 31.4 µM (inactive); in assay [12], > 100 µM (inactive). Moreover, the GI50 in assay [20] is > 100 µM (inactive); in [14], > 100 µM (inactive); in assay [16], 30.4 µM (inactive); in assay [17], > 36.4 µM (inactive); in assay [18], > 100 µM (inactive); in [19] it was > 100 µM (inactive).
For `COc1ccc(C2c3cc4c(cc3OC(NNS(=O)(=O)c3ccc(C)cc3)C2C)OCO4)cc1` (stereo not drawn), the GI50 was 29.3 µM (inactive) in assay [1]; 74 µM (inactive) in [2]; 53.5 µM (inactive) in [3]; > 100 µM (inactive) in [5]; 21.1 µM (inactive) in [6]; 27.7 µM (inactive) in assay [7]. Also, the GI50 in assay [8] is 54.6 µM (inactive); in assay [9], > 100 µM (inactive); in assay [10], 21 µM (inactive); in [11], 38.6 µM (inactive); in [12] it was > 100 µM (inactive); in assay [20], 59.7 µM (inactive). Moreover, the GI50 in [13] is 69.5 µM (inactive); in assay [14], > 100 µM (inactive); in assay [15], > 100 µM (inactive); in [16], 9.12 µM (inactive); in assay [17], 54.2 µM (inactive); in assay [18], > 100 µM (inactive). Further, the GI50 in assay [19] is 71.6 µM (inactive).
Turning to `C=CCNC(=O)NC1=CSC2=NC(=O)C3(NN12)c1ccccc1-c1ccccc13`, the GI50 in [1], in assay [2], in assay [3], in assay [4], in [5] and in assay [6] was > 10 µM (inactive) each time. Moreover, the GI50 in assay [7] is 4.16 µM (inactive); in assay [8] it was > 10 µM (inactive); in assay [9], > 10 µM (inactive); in assay [10] it was > 10 µM (inactive); in assay [11], > 10 µM (inactive); in assay [12] it was > 10 µM (inactive). The GI50 in assay [13], in assay [14], in [15], in assay [16], in [17] and in assay [18] was > 10 µM (inactive) throughout. Moreover, the GI50 in assay [19] was > 10 µM (inactive).
Turning to `Cc1ccc(C)n2c1nc1cc3ccccc3cc12`, the GI50 was 28.6 µM (inactive) in assay [1]; 29.6 µM (inactive) in [2]; 25.6 µM (inactive) in assay [3]; 64.6 µM (inactive) in [4]; 21 µM (inactive) in [5]; 8.75 µM (inactive) in assay [6]. For the same compound, the GI50 is 60.3 µM (inactive) in [7]; 44.8 µM (inactive) in assay [8]; 44.4 µM (inactive) in assay [9]; 32.4 µM (inactive) in assay [10]; 12.3 µM (inactive) in assay [11]; 64 µM (inactive) in assay [12]. The GI50 in [13] is 17.1 µM (inactive); in assay [14] it was 43 µM (inactive); in [15], 24.4 µM (inactive); in [16] it was 43.4 µM (inactive); in [17], 11.1 µM (inactive); in [18] it was 15.5 µM (inactive). The GI50 in assay [19] is 18.8 µM (inactive).
Take `COC(=O)c1c(O)ccc2c1c1c(n2Cc2ccc(Cl)cc2Cl)C(=O)c2ccccc2C1=O`: the GI50 is 5.62 µM (inactive) in assay [1]; 7.85 µM (inactive) in assay [2]; 13.2 µM (inactive) in assay [3]; 10.4 µM (inactive) in assay [4]; 9.18 µM (inactive) in [5]; 12.2 µM (inactive) in assay [6]. For the same compound, the GI50 is 9.62 µM (inactive) in assay [7]; 7.91 µM (inactive) in assay [8]; 8.99 µM (inactive) in [9]; 7.74 µM (inactive) in [10]; 4.09 µM (inactive) in [11]; 10.1 µM (inactive) in [12]. Moreover, the GI50 in assay [20] was 14.2 µM (inactive); in assay [13], 13.7 µM (inactive); in assay [14], 2.21 µM (inactive); in [15] it was 15.7 µM (inactive); in assay [16] it was 3.44 µM (inactive); in [17], 1.97 µM (inactive). Also, the GI50 in [18] was 14.9 µM (inactive).
With `CC1=NN(c2nc(N)nc(CF)n2)C(C)(C)C1`, the GI50 in assay [2], in assay [3], in [4], in assay [5], in [6] and in assay [7] was > 100 µM (inactive) each time. For the same compound, the GI50 in assay [8], in [9], in assay [10], in assay [11], in [12] and in assay [20] was > 100 µM (inactive) throughout. Further, the GI50 in [13], in assay [15], in [16], in assay [17], in [18] and in assay [19] was > 100 µM (inactive) in each case.
On to `COc1ccc2c(c1)CC[C@@H]1C2CC[C@]2(C)C(=O)N(CCN(C)C)C(=O)CC12` (stereo partly drawn), for which the GI50 in [1], in assay [2], in assay [3], in [4], in assay [5] and in assay [6] was > 100 µM (inactive) each time. The GI50 in [7], in [8], in [9], in [10], in assay [11] and in [12] was > 100 µM (inactive) each time. The GI50 in assay [13] was 83.9 µM (inactive); in assay [14], > 100 µM (inactive); in [15], > 100 µM (inactive); in [16], > 100 µM (inactive); in assay [17] it was > 100 µM (inactive); in assay [18], > 100 µM (inactive). Further, in assay [19], the GI50 was > 100 µM (inactive).
Regarding `CCN(CC)CCNc1ccc2ncn3c4c(OC)ccc(OC)c4c(=O)c1c23`, the GI50 in [1] was 22.5 µM (inactive); in assay [2], 4.1 µM (inactive); in [3], > 10 µM (inactive); in assay [4] it was 15.3 µM (inactive); in assay [5], > 100 µM (inactive); in [6], 11.2 µM (inactive). The GI50 in assay [7] is > 10 µM (inactive); in assay [8] it was > 10 µM (inactive); in assay [9], 10.8 µM (inactive); in assay [10], > 10 µM (inactive); in assay [11] it was 1.71 µM (inactive); in [12] it was 3.24 µM (inactive). The GI50 in assay [13] was 17.2 µM (inactive); in assay [14], > 10 µM (inactive); in assay [15], 20 µM (inactive); in [16], 3.72 µM (inactive); in assay [17], > 100 µM (inactive); in assay [18], > 100 µM (inactive). Besides, in assay [19], the GI50 is 22.6 µM (inactive).
